Tests used:
[1] = target: T1, hSCL (human selenocysteine lyase) (Homo sapiens, UniProt Q96I15); assay: X-ray crystal structure; type: binding; conditions: P2_12_12_1 crystal, 2.1 Å; pH 6.7; copurified cofactor; active site at homodimer interface
T1 construct: gene SCLY; residues 8-445, N-terminal His6-TEV tag cleaved before assay and crystallization; E. coli BL21(DE3); homodimer
T1 sequence (Q96I15 8-445): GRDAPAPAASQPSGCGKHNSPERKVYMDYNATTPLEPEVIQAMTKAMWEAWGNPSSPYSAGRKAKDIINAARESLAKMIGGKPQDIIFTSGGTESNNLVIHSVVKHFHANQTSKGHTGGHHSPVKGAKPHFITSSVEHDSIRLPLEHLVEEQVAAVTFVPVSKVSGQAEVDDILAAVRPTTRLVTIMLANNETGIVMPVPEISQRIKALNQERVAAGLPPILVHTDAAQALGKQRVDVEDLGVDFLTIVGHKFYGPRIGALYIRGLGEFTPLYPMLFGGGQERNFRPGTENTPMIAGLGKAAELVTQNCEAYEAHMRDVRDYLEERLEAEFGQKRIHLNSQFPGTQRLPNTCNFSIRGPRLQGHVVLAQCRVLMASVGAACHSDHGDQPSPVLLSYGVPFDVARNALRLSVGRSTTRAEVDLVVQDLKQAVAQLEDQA

[2] = target: T1, hSCL (human selenocysteine lyase); assay: alanine dehydrogenase-coupled detection of product alanine; type: biochemical; conditions: 5 mM seleno-L-cystine reduced in situ by 50 mM DTT (10 mM Sec equivalent), 0.2 mM PLP, pH 8.5, 37 °C, under nitrogen; time course only
[3] = target: the molecule itself; assay: crystal structure; hSCL with PLP, His-tag cleaved; two crystal forms: P2(1)2(1)2(1), 2.1 A, 100 mM HEPES pH 6.7, 10% PEG6000, one dimer per asymmetric unit; P1, 1.8 A, 50 mM HEPES pH 8.1, 200 mM ammonium nitrate, 25% PEG3350, soaked with 10 mM L-cysteine for 2 h, two dimers per asymmetric unit; crystals grown at 20 C

In the case of Cc1ncc(COP(=O)(O)O)c(C=O)c1O [PLP], the X-ray crystal structure [1] is reported as “Human SCL homodimer in complex with the co-factor PLP”.

For N[C@@H](C[SeH])C(=O)O [Sec], the “alanine dehydrogenase-coupled detection of product alanine” value [2] was “The activity with Sec observed in the wild-type enzyme was not altered”.

B1: human selenocysteine lyase (hSCL), residues 8-445 (enzyme, UniProt Q96I15 8-445, looked up)
chain: T1 sequence (Q96I15 8-445)
notes: human selenocysteine lyase (hSCL), residues 8-445, cDNA clone from the Mammalian Gene Collection (GenBank BC007891.2), cloned in pNIC-Bsa4; residues 120-132 are disordered; A few vector residues probably remain at the N-terminus after TEV cleavage (surmised; also called human SCL; Sec lyase; source: His-tag removed with TEV protease); not shown: His6, N-terminal, cleaved
B1 was tested, and the “stoichiometry N” value [3] was 2.

Source: paper PMC3266270, “Biochemical Discrimination between Selenium and Sulfur 1: A Single Residue Provides Selenium Specificity to Human Selenocysteine Lyase” (PLoS ONE, 2012)
